# Measurements from the NIST ThermoML archive (doi:10.1016/j.jct.2015.05.005).
# ± gives the expanded uncertainty stated by the source.
# Conditions: Liquid mixture 1, Pendant drop shape
smiles,measurement,setting,value
O=C=O [carbon dioxide] + O,interfacial tension,"298.4 K, 6830 kPa",31 ± 0.49 mN/m
same,interfacial tension,"298.5 K, 7200 kPa",30.99 ± 0.4 mN/m
same,interfacial tension,"298.5 K, 8100 kPa",31.09 ± 0.33 mN/m
same,interfacial tension,"298.6 K, 6490 kPa",30.79 ± 1.9 mN/m
same,interfacial tension,"298.6 K, 8970 kPa",30.98 ± 0.34 mN/m
same,interfacial tension,"298.6 K, 10630 kPa",30.73 ± 0.34 mN/m
same,interfacial tension,"298.6 K, 13180 kPa",30.62 ± 0.37 mN/m
same,interfacial tension,"298.6 K, 15150 kPa",30.81 ± 0.42 mN/m
same,interfacial tension,"298.6 K, 20830 kPa",29.84 ± 0.49 mN/m
